Tests used:
Details in all cases: exposure time: 72 h
E57 [1] = patient-derived glioblastoma stem cells of mesenchymal subtype; assay: surviving fraction (nuclei count normalised to DMSO); higher = more cells surviving (less toxic)
E21 [2] = patient-derived glioblastoma stem cells of mesenchymal subtype; assay: as above
FT3469 [3] = normal neural stem cell line; assay: as above
E13 [4] = patient-derived glioblastoma stem cells of classical subtype; assay: as above
E34 [5] = patient-derived glioblastoma stem cells of proneural subtype; assay: as above
E28 [6] = patient-derived glioblastoma stem cells of classical subtype; assay: as above
E31 [7] = patient-derived glioblastoma stem cells of proneural subtype; assay: as above
E57 [8] = assay: phenotypic distance (Euclidean, principal components) from DMSO controls (arbitrary units); higher = stronger morphological change
E21 [9] = assay: as above
FT3469 [10] = assay: as above
E13 [11] = assay: as above
E34 [12] = assay: as above
E28 [13] = assay: as above
E31 [14] = assay: as above
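For phenotypic distance (Euclidean, principal components) from DMSO controls in this document: cell Painting imaging in 384-well plates, CellProfiler features reduced to at least 20 principal components, Euclidean distance versus same-plate DMSO vehicle wells (0.1% v/v), median over six images per well.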
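For surviving fraction (nuclei count normalised to DMSO) in this document: nuclei counted by high-content imaging of Hoechst-stained cells in laminin-coated 384-well plates, relative to 0.1% DMSO vehicle wells, with staurosporine as cell-death control.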

COc1cc(/C=C/C(=O)N2CCC=CC2=O)cc(OC)c1OC [Piperlongumine]
surviving fraction (E57 [1]; 4.1 nM): 1.02
surviving fraction (E57 [1]; 12.3 nM): 0.96
surviving fraction (E57 [1]; 37 nM): 1.03
surviving fraction (E57 [1]; 111.1 nM): 1.03
surviving fraction (E57 [1]; 333.3 nM): 1.06
surviving fraction (E57 [1]; 1000 nM): 1
surviving fraction (E57 [1]; 3000 nM): 0.285
surviving fraction (E21 [2]; 4.1 nM): 1.01
surviving fraction (E21 [2]; 12.3 nM): 0.979
surviving fraction (E21 [2]; 37 nM): 0.997
surviving fraction (E21 [2]; 111.1 nM): 0.997
surviving fraction (E21 [2]; 333.3 nM): 0.908
surviving fraction (E21 [2]; 1000 nM): 0.609
surviving fraction (E21 [2]; 3000 nM): 0.104
surviving fraction (FT3469 [3]; 4.1 nM): 1.05
surviving fraction (FT3469 [3]; 12.3 nM): 0.946
surviving fraction (FT3469 [3]; 37 nM): 0.901
surviving fraction (FT3469 [3]; 111.1 nM): 0.983
surviving fraction (FT3469 [3]; 333.3 nM): 0.881
surviving fraction (FT3469 [3]; 1000 nM): 0.866
surviving fraction (FT3469 [3]; 3000 nM): 0.7
surviving fraction (E13 [4]; 4.1 nM): 0.958
surviving fraction (E13 [4]; 12.3 nM): 0.883
surviving fraction (E13 [4]; 37 nM): 1.05
surviving fraction (E13 [4]; 111.1 nM): 0.818
surviving fraction (E13 [4]; 333.3 nM): 0.823
surviving fraction (E13 [4]; 1000 nM): 0.88
surviving fraction (E13 [4]; 3000 nM): 0.767
surviving fraction (E34 [5]; 4.1 nM): 0.873
surviving fraction (E34 [5]; 12.3 nM): 0.984
surviving fraction (E34 [5]; 37 nM): 1.11
surviving fraction (E34 [5]; 111.1 nM): 1.04
surviving fraction (E34 [5]; 333.3 nM): 1.06
surviving fraction (E34 [5]; 1000 nM): 0.863
surviving fraction (E34 [5]; 3000 nM): 0.559
surviving fraction (E28 [6]; 4.1 nM): 1.02
surviving fraction (E28 [6]; 12.3 nM): 1.1
surviving fraction (E28 [6]; 37 nM): 1.13
surviving fraction (E28 [6]; 111.1 nM): 0.988
surviving fraction (E28 [6]; 333.3 nM): 1.03
surviving fraction (E28 [6]; 1000 nM): 0.538
surviving fraction (E28 [6]; 3000 nM): 0.256
surviving fraction (E31 [7]; 4.1 nM): 0.957
surviving fraction (E31 [7]; 12.3 nM): 1.09
surviving fraction (E31 [7]; 37 nM): 1.19
surviving fraction (E31 [7]; 111.1 nM): 1.12
surviving fraction (E31 [7]; 333.3 nM): 0.938
surviving fraction (E31 [7]; 1000 nM): 0.684
surviving fraction (E31 [7]; 3000 nM): 0.00892
phenotypic distance (E57 [8]; 4.1 nM): 1.56
phenotypic distance (E57 [8]; 12.3 nM): 0.849
phenotypic distance (E57 [8]; 37 nM): 0.56
phenotypic distance (E57 [8]; 111.1 nM): 0.314
phenotypic distance (E57 [8]; 333.3 nM): 0.518
phenotypic distance (E57 [8]; 1000 nM): 1.93
phenotypic distance (E57 [8]; 3000 nM): 6.93
phenotypic distance (E21 [9]; 4.1 nM): 1.09
phenotypic distance (E21 [9]; 12.3 nM): 0.626
phenotypic distance (E21 [9]; 37 nM): 0.701
phenotypic distance (E21 [9]; 111.1 nM): 0.313
phenotypic distance (E21 [9]; 333.3 nM): 0.682
phenotypic distance (E21 [9]; 1000 nM): 3.07
phenotypic distance (E21 [9]; 3000 nM): 9.28
phenotypic distance (FT3469 [10]; 4.1 nM): 0.686
phenotypic distance (FT3469 [10]; 12.3 nM): 0.732
phenotypic distance (FT3469 [10]; 37 nM): 0.828
phenotypic distance (FT3469 [10]; 111.1 nM): 0.586
phenotypic distance (FT3469 [10]; 333.3 nM): 1.07
phenotypic distance (FT3469 [10]; 1000 nM): 1.12
phenotypic distance (FT3469 [10]; 3000 nM): 3.88
phenotypic distance (E13 [11]; 4.1 nM): 0.433
phenotypic distance (E13 [11]; 12.3 nM): 0.675
phenotypic distance (E13 [11]; 37 nM): 0.516
phenotypic distance (E13 [11]; 111.1 nM): 2.59
phenotypic distance (E13 [11]; 333.3 nM): 0.883
phenotypic distance (E13 [11]; 1000 nM): 0.903
phenotypic distance (E13 [11]; 3000 nM): 1.87
phenotypic distance (E34 [12]; 4.1 nM): 1.26
phenotypic distance (E34 [12]; 12.3 nM): 0.821
phenotypic distance (E34 [12]; 37 nM): 1.16
phenotypic distance (E34 [12]; 111.1 nM): 0.677
phenotypic distance (E34 [12]; 333.3 nM): 0.524
phenotypic distance (E34 [12]; 1000 nM): 0.889
phenotypic distance (E34 [12]; 3000 nM): 1.82
phenotypic distance (E28 [13]; 4.1 nM): 0.727
phenotypic distance (E28 [13]; 12.3 nM): 1.04
phenotypic distance (E28 [13]; 37 nM): 0.697
phenotypic distance (E28 [13]; 111.1 nM): 0.848
phenotypic distance (E28 [13]; 333.3 nM): 0.74
phenotypic distance (E28 [13]; 1000 nM): 2.27
phenotypic distance (E28 [13]; 3000 nM): 5.12
phenotypic distance (E31 [14]; 4.1 nM): 1.19
phenotypic distance (E31 [14]; 12.3 nM): 0.591
phenotypic distance (E31 [14]; 37 nM): 0.723
phenotypic distance (E31 [14]; 111.1 nM): 0.471
phenotypic distance (E31 [14]; 333.3 nM): 1.14
phenotypic distance (E31 [14]; 1000 nM): 1.51
phenotypic distance (E31 [14]; 3000 nM): 10.8

C[C@H]1Oc2cc(cnc2N)-c2c(nn(C)c2C#N)CN(C)C(=O)c2ccc(F)cc21 [Lorlatinib]
surviving fraction (E57 [1]; 4.1 nM): 0.87
surviving fraction (E57 [1]; 12.3 nM): 0.808
surviving fraction (E57 [1]; 37 nM): 0.891
surviving fraction (E57 [1]; 111.1 nM): 0.816
surviving fraction (E57 [1]; 333.3 nM): 0.815
surviving fraction (E57 [1]; 1000 nM): 0.794
surviving fraction (E57 [1]; 3000 nM): 0.757
surviving fraction (E21 [2]; 4.1 nM): 0.887
surviving fraction (E21 [2]; 12.3 nM): 0.918
surviving fraction (E21 [2]; 37 nM): 0.876
surviving fraction (E21 [2]; 111.1 nM): 0.918
surviving fraction (E21 [2]; 333.3 nM): 0.862
surviving fraction (E21 [2]; 1000 nM): 0.924
surviving fraction (E21 [2]; 3000 nM): 0.768
surviving fraction (FT3469 [3]; 4.1 nM): 0.89
surviving fraction (FT3469 [3]; 12.3 nM): 1.1
surviving fraction (FT3469 [3]; 37 nM): 0.999
surviving fraction (FT3469 [3]; 111.1 nM): 0.981
surviving fraction (FT3469 [3]; 333.3 nM): 1.03
surviving fraction (FT3469 [3]; 1000 nM): 1.06
surviving fraction (FT3469 [3]; 3000 nM): 0.834
surviving fraction (E13 [4]; 4.1 nM): 1.03
surviving fraction (E13 [4]; 12.3 nM): 0.961
surviving fraction (E13 [4]; 37 nM): 1.08
surviving fraction (E13 [4]; 111.1 nM): 1.08
surviving fraction (E13 [4]; 333.3 nM): 1.11
surviving fraction (E13 [4]; 1000 nM): 1
surviving fraction (E13 [4]; 3000 nM): 1.01
surviving fraction (E34 [5]; 4.1 nM): 1.02
surviving fraction (E34 [5]; 12.3 nM): 0.994
surviving fraction (E34 [5]; 37 nM): 0.939
surviving fraction (E34 [5]; 111.1 nM): 1.09
surviving fraction (E34 [5]; 333.3 nM): 0.999
surviving fraction (E34 [5]; 1000 nM): 1.1
surviving fraction (E34 [5]; 3000 nM): 0.792
surviving fraction (E28 [6]; 4.1 nM): 1.11
surviving fraction (E28 [6]; 12.3 nM): 1.02
surviving fraction (E28 [6]; 37 nM): 1.05
surviving fraction (E28 [6]; 111.1 nM): 0.843
surviving fraction (E28 [6]; 333.3 nM): 0.913
surviving fraction (E28 [6]; 1000 nM): 1.07
surviving fraction (E28 [6]; 3000 nM): 0.911
surviving fraction (E31 [7]; 4.1 nM): 1.23
surviving fraction (E31 [7]; 12.3 nM): 0.867
surviving fraction (E31 [7]; 37 nM): 1.06
surviving fraction (E31 [7]; 111.1 nM): 0.986
surviving fraction (E31 [7]; 333.3 nM): 1.17
surviving fraction (E31 [7]; 1000 nM): 1.08
surviving fraction (E31 [7]; 3000 nM): 1.01
phenotypic distance (E57 [8]; 4.1 nM): 2.11
phenotypic distance (E57 [8]; 12.3 nM): 3.34
phenotypic distance (E57 [8]; 37 nM): 2.79
phenotypic distance (E57 [8]; 111.1 nM): 3.21
phenotypic distance (E57 [8]; 333.3 nM): 2.46
phenotypic distance (E57 [8]; 1000 nM): 2.74
phenotypic distance (E57 [8]; 3000 nM): 2.66
phenotypic distance (E21 [9]; 4.1 nM): 0.926
phenotypic distance (E21 [9]; 12.3 nM): 2.32
phenotypic distance (E21 [9]; 37 nM): 1.09
phenotypic distance (E21 [9]; 111.1 nM): 0.89
phenotypic distance (E21 [9]; 333.3 nM): 1.37
phenotypic distance (E21 [9]; 1000 nM): 1.41
phenotypic distance (E21 [9]; 3000 nM): 1.96
phenotypic distance (FT3469 [10]; 4.1 nM): 1.48
phenotypic distance (FT3469 [10]; 12.3 nM): 0.861
phenotypic distance (FT3469 [10]; 37 nM): 1.31
phenotypic distance (FT3469 [10]; 111.1 nM): 0.981
phenotypic distance (FT3469 [10]; 333.3 nM): 1.15
phenotypic distance (FT3469 [10]; 1000 nM): 0.901
phenotypic distance (FT3469 [10]; 3000 nM): 1.54
phenotypic distance (E13 [11]; 4.1 nM): 0.964
phenotypic distance (E13 [11]; 12.3 nM): 0.749
phenotypic distance (E13 [11]; 37 nM): 1.19
phenotypic distance (E13 [11]; 111.1 nM): 0.958
phenotypic distance (E13 [11]; 333.3 nM): 0.954
phenotypic distance (E13 [11]; 1000 nM): 1.09
phenotypic distance (E13 [11]; 3000 nM): 0.943
phenotypic distance (E34 [12]; 4.1 nM): 0.575
phenotypic distance (E34 [12]; 12.3 nM): 0.814
phenotypic distance (E34 [12]; 37 nM): 1.28
phenotypic distance (E34 [12]; 111.1 nM): 0.761
phenotypic distance (E34 [12]; 333.3 nM): 1.2
phenotypic distance (E34 [12]; 1000 nM): 0.726
phenotypic distance (E34 [12]; 3000 nM): 1.84
phenotypic distance (E28 [13]; 4.1 nM): 1.06
phenotypic distance (E28 [13]; 12.3 nM): 0.784
phenotypic distance (E28 [13]; 37 nM): 1.27
phenotypic distance (E28 [13]; 111.1 nM): 1.47
phenotypic distance (E28 [13]; 333.3 nM): 1.29
phenotypic distance (E28 [13]; 1000 nM): 1.31
phenotypic distance (E28 [13]; 3000 nM): 1.79
phenotypic distance (E31 [14]; 4.1 nM): 0.873
phenotypic distance (E31 [14]; 12.3 nM): 1.38
phenotypic distance (E31 [14]; 37 nM): 2.47
phenotypic distance (E31 [14]; 111.1 nM): 0.874
phenotypic distance (E31 [14]; 333.3 nM): 1.08
phenotypic distance (E31 [14]; 1000 nM): 1.32
phenotypic distance (E31 [14]; 3000 nM): 1.4
